Data reported in patent US10017534B2, “Method for producing Tebbe complex” (KURARAY CO., LTD., priority 2014, dated 2018).

Assay: Measurement of solubility of Tebbe complex in a solvent (atomic absorption analysis of filtrate)
Details: for Solubility of Tebbe complex / Titanium atom contained in filtrate: 25° C.
Procedure: The measurement of the solubility of the Tebbe complex in a solvent was performed in the following manner. That is, 4 mL of a solvent of every kind was added to 1 g of a Tebbe complex obtained in the following Preparation Example 1; a solution after stirring at 25° C. for one hour was filtered with a membrane filter of 0.2 μm; the filtrate was subjected to atomic absorption analysis using the aforementioned polarized Zeeman atomic absorption spectrophotometer; and a titanium atom concentration was measured.
The measurement of the solubility of the Tebbe complex in a solvent was performed in the following manner. That is, 4 mL of a solvent of every kind was added to 1 g of the Tebbe complex obtained in Preparation Example 1; a solution after stirring at 25° C. for one hour was filtered with a membrane filter of 0.2 μm; and the filtrate was subjected to atomic absorption analysis using the aforementioned polarized Zeeman atomic absorption spectrophotometer, thereby measuring a titanium atom concentration.
Using a glove box, 1.0 g of the brownish-red crystal b1 of the Tebbe complex obtained in the method of Preparation Example 1 was weighed in a 20-mL eggplant type flask in an argon atmosphere, and a rotator and 4 mL of dehydrated hexane were added, followed by stirring at 25° C. for one hour. Thereafter, the resultant was allowed to stand and then filtered with a membrane filter of 0.2 μm, and 1.0 g of a filtrate containing the Tebbe complex was subjected to atomic absorption analysis, thereby measuring the solubility of the Tebbe complex.

Substance: μ-chloro-μ-methylene-bis(η^5-cyclopentadienyl)titanium dimethylaluminum [Tebbe complex]
- Solubility of Tebbe complex (1,4-dioxane): 1.43 mmol/g
- Titanium atom contained in filtrate (1,4-dioxane): 6.84 % by mass
- Solubility of Tebbe complex (2-hexene): 0.27 mmol/g
- Titanium atom contained in filtrate (2-hexene): 1.29 % by mass
- Solubility of Tebbe complex (2-methylpentane): 0.21 mmol/g
- Titanium atom contained in filtrate (2-methylpentane): 1.01 % by mass
- solubility of the Tebbe complex in 1 g of the solvent (aliphatic hydrocarbons of Test Examples 1 to 6, 25° C.): ≤ 0.5 mmol/g
- solubility of the Tebbe complex in 1 g of the solvent (aromatic hydrocarbons and ether compounds of Comparative Test Examples 1 to 8, 25° C.): more than 0.5 mmol/g
- Solubility of Tebbe complex (benzene): 1.18 mmol/g
- Titanium atom contained in filtrate (benzene): 5.65 % by mass
- Solubility of Tebbe complex (cyclohexane): 0.45 mmol/g
- Titanium atom contained in filtrate (cyclohexane): 2.15 % by mass
- Solubility of Tebbe complex (cyclopentyl methyl ether): 1.29 mmol/g
- Titanium atom contained in filtrate (cyclopentyl methyl ether): 6.17 % by mass
- Solubility of Tebbe complex (diisopropyl ether): 0.60 mmol/g
- Titanium atom contained in filtrate (diisopropyl ether): 2.87 % by mass
- Solubility of Tebbe complex (dodecane): 0.12 mmol/g
- Titanium atom contained in filtrate (dodecane): 0.57 % by mass
- Solubility of Tebbe complex (heptane): 0.21 mmol/g
- Titanium atom contained in filtrate (heptane): 1.01 % by mass
- Solubility of Tebbe complex (hexane): 0.22 mmol/g
- Titanium atom contained in filtrate (hexane): 1.05 % by mass
- Solubility of Tebbe complex (methylene chloride): 1.49 mmol/g
- Titanium atom contained in filtrate (methylene chloride): 7.13 % by mass
- Solubility of Tebbe complex (p-xylene): 0.94 mmol/g
- Titanium atom contained in filtrate (p-xylene): 4.50 % by mass
- Solubility of Tebbe complex (tetrahydrofuran): 1.71 mmol/g
- Titanium atom contained in filtrate (tetrahydrofuran): 8.19 % by mass
- Solubility of Tebbe complex (toluene): 0.93 mmol/g
- Titanium atom contained in filtrate (toluene): 4.45 % by mass
